PubChem BioAssay AID2005 (Sanford-Burnham Center for Chemical Genomics, 2009)
Calls of active or inactive are those of the source.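 Rule for the calls: active = plate Z score at or below -3, or inhibition of at least 30% at 20 µM; inactive = the rest.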

Assay: EGFP reporter destabilization counter-screen – F442A EGFP cells, fluorescence, counter-screen for p/CIP destabilizer project, dose response (AID 2005);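 note: cells express EGFP alone from a CMV promoter as a counter screen for p/CIP-EGFP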
Conditions: F442A EGFP cells, EGFP fluorescence, 16 h, stronger effect = higher value

Structure (SMILES) | inhibition (EGFP decrease, at 10 µM) [%] | inhibition (at 20 µM)
COC(=O)c1ccc(NC(=O)CCCCCn2nnc3ccccc3c2=O)cc1 | 5.4 | -4% (inactive)
Cn1c(C(=O)NCc2cccnc2)cc2sc(Cl)cc21 | 28.8 | 32.9%
CCCCCCn1c(=O)c(C(=O)Nc2cccc(C)n2)c(O)c2ccccc21 | 26.7 | 20.6% (inactive)
Cc1cc(C)n(-c2nc3c(c(=O)[nH]c(=O)n3C)n2CC(O)COc2ccccc2)n1 (stereo not given) | -7.9 | 7.8% (inactive)
C[C@H](NC(=O)OCc1ccccc1)c1nnc([C@H](C)NC(=O)OCc2ccccc2)o1 | -3.8 | -5.1% (inactive)
COc1ccc(N2CCN(C(=O)CNS(=O)(=O)c3ccc(Br)s3)CC2)cc1 | 31 | 28.5% (inactive)
O=C1C(=O)c2ccc(-c3ccccc3)cc2-c2ccccc21 | -14.4 | 2.4% (inactive)
C[C@@H](CN1C2=NC[C@H](Cc3ccc(O)cc3)N2C[C@H]1Cc1ccc(O)cc1)NC(=O)CCC1CCCCC1 | 19.4 | 28.8% (inactive)
COc1ccc2c(C)cc3nncn3c2c1 | -2.7 | 14.7% (inactive)
COc1ccc(-c2cc(C(F)(F)F)nc(N3CCN(C)CC3)n2)cc1OC | 8.9 | 8% (inactive)
O=C(CCCOc1ccccc1)Nc1nncs1 | -15.9 | 22.7% (inactive)
NC(=O)COC(=O)CSc1cccc2cccc(Cl)c12 | 24 | 10.6% (inactive)
O=C(NCC1CCCO1)C1CCCCN1S(=O)(=O)c1ccc(F)cc1 (stereo not given) | -13.3 | 9.4% (inactive)
Cc1ccccc1NC(=O)C1CCCN(C(=O)Nc2ccc(F)cc2)C1 (stereo not given) | 12.3 | 3.2% (inactive)
CC(Oc1ccc(F)cc1)C(=O)/C=C\N(C)C (stereo not given) | 8.4 | 0% (inactive)
O=C(CNC(=O)c1ccco1)NCC(=O)OCc1ccc(Cl)cc1Cl | -15.3 | 6% (inactive)
O=C(Nc1ccc(F)cc1)Nc1nnc(-c2ccco2)s1 | 12 | -2.8% (inactive)
COC(=O)c1cccc(C23CC4(C2)[C@H](CN(C)[C@@H]4c2ccccc2)C3c2ccc(C(F)(F)F)cc2)c1 (stereo not given in full) | 8 | 8.1% (inactive)
O=C1c2ccccc2C(=O)C1c1ccc2ccccc2n1 | 1.9 | -11.6% (inactive)
CC(C)CC(=O)Nc1ncnc2c1C(=O)CC(C)(C)C2 | 11.5 | 12.2% (inactive)
CN1CCN(C(=O)c2cccc(S(=O)(=O)N3CCCCC3)c2)CC1 | 10.5 | 20.5% (inactive)
CCn1c(COc2ccc(=O)n(-c3ccccc3)n2)nnc1SCc1ccccc1C | 4.8 | 20.9% (inactive)
Cc1ccc2nc(-c3ccc(S(=O)(=O)N4CCOCC4)cc3)cn2c1 | 14.7 | 6.1% (inactive)
C/C(=C/C=C/[C@@H](C)C(=O)O)[C@H]1CN[C@H](C(=O)O)[C@H]1CC(=O)O | -8.3 | 10.3% (inactive)
COc1ccccc1N1CCN(CC(O)COCc2cccs2)CC1 (stereo not given) | 16.3 | 8% (inactive)
COc1cccc2[nH]c(C(=O)NCCc3ccccc3)cc12 | 4.4 | 17.4% (inactive)
CCCC(=O)C1=C(N(C)c2ccccc2)CC(C)(C)CC1=O | 24.9 | 21.6% (inactive)
CNc1cc(C(F)(F)F)nc(-c2ccccn2)n1 | -1.6 | 22.4% (inactive)
CCC1=C2CC[C@H]3C(=O)N(C)C(=O)[C@H]3[C@H]2[C@@]2(Cc3ccccc3)C(=NCCOC)OC(=O)N2C1=O | -6.2 | 13.4% (inactive)
Cc1nn(C)c(Cl)c1S(=O)(=O)N[C@@H](c1ccccc1)[C@]1(C)C[C@H]1[C@@H](C)C(=O)Nc1ccc2ccccc2c1 | 34.6 | 11.3% (inactive)
